Common to all, as to assay: inhibition of tumour cell growth, NCI panel, 48 h
For experiment [1], the system named is A549.
Experiment [2] has as its system DMS-273.
Experiment [3] relates to HCT-15.
Experiment [4] concerns Hs-578T.
For experiment [5], the system named is K562.
In experiment [6] the test system is KM12.
Experiment [7] deals with LOX IMVI.
Experiment [8] deals with M14.
Experiment [9] has as its system MDA-MB-435.
Experiment [10] concerns NCI-H226.
Experiment [11] concerns OVCAR-4.
Experiment [12] concerns OVCAR-5.
The subject of experiment [13] is SK-MEL-2.
The subject of experiment [14] is SN12C.
Experiment [15] concerns SNB-19.
Experiment [16] deals with SNB-75.
For experiment [17], the system named is SR.
Experiment [18] relates to SW-620.
Experiment [19] deals with U-251.
In experiment [20] the test system is UACC-257.

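Five concentrations, 48 hours, 96-well plates. The concentration for 50% growth inhibition is given as GI50.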 Active and inactive are the calls of the source. Cut-off read from the data, not from the text of the source: active = GI50 up to about 1.1 µM and inactive = higher. Where only a bound is given, the exact number is not on record here.

`C=C(C)c1nc(Oc2ccccc2)nc(Oc2ccccc2)n1`: the GI50 in experiment [1] is 19.5 µM (inactive); in experiment [2], 6.43 µM (inactive); in [3], 2.81 µM; in experiment [4], 4.49 µM (inactive); in [5], 2.23 µM (inactive); in experiment [6], 3.09 µM (inactive). The GI50 in [7] was 2.08 µM (inactive); in experiment [8], 5.42 µM (inactive); in experiment [9], 10.3 µM (inactive); in experiment [10], 19.9 µM (inactive); in experiment [11] it was 11.2 µM (inactive); in [12], 16.6 µM (inactive). Further, the GI50 in [13] was 2.21 µM (inactive); in experiment [14], 5.6 µM (inactive); in experiment [15], 9.33 µM (inactive); in experiment [16], 9.75 µM (inactive); in experiment [17], 2.86 µM (inactive); in [18] it was 3.82 µM (inactive). The GI50 in experiment [19] was 10.6 µM (inactive); in experiment [20], 9.55 µM (inactive).

For the compound `Cc1cc(N(CCC#N)S(=O)(=O)c2ccccc2)ccc1/C=N/c1ccc(C(=O)O)cc1`, the GI50 was 31.6 µM (inactive) in experiment [1]; 6.61 µM (inactive) in [2]; 7.53 µM in experiment [3]; 56 µM (inactive) in experiment [4]; 7.96 µM (inactive) in [5]; 20.4 µM (inactive) in [6]. The GI50 in experiment [7] is 13.2 µM (inactive); in [8], 9.77 µM (inactive); in experiment [9], > 100 µM (inactive); in [10] it was 21.8 µM (inactive); in [11], 5.62 µM (inactive); in [12], 20.3 µM (inactive). Besides, the GI50 in experiment [13] is 6.7 µM (inactive); in experiment [14] it was 6.21 µM (inactive); in experiment [15] it was 29.6 µM (inactive); in [16] it was 14 µM (inactive); in experiment [18], 7.43 µM (inactive); in experiment [19], 21.3 µM (inactive). Further, in experiment [20], the GI50 is 16.9 µM (inactive).

For `O=C(c1ccccc1)[C@H]1Nc2ccc(Cl)cc2[C@H]2CCC[C@@H]12`, the GI50 is 42 µM (inactive) in experiment [1]; 36.1 µM (inactive) in experiment [2]; 25.1 µM in experiment [3]; 15.4 µM (inactive) in experiment [5]; 49.1 µM (inactive) in experiment [6]; 6.85 µM (inactive) in [7]. Also, the GI50 in [8] was 11.7 µM (inactive); in [10], 13.6 µM (inactive); in [11], 26.2 µM (inactive); in [12], 23.7 µM (inactive); in experiment [13], 19.7 µM (inactive); in [14], 14.6 µM (inactive). Besides, the GI50 is > 100 µM (inactive) in [15]; 21.7 µM (inactive) in experiment [16]; 7.21 µM (inactive) in [17]; 27.9 µM (inactive) in [18]; 35.6 µM (inactive) in experiment [19].

Take `CCCCCCCCCCCCCCCCCC(=O)OCC(CN(C)CCN(C)C)OC(=O)CCCCCCCCCCCCCCCCC` (configuration not stated): the GI50 was 55.3 µM (inactive) in experiment [1]; > 100 µM (inactive) in experiment [2]; more than 100 µM in [3]; 15.8 µM (inactive) in [5]; 88.5 µM (inactive) in [6]; > 100 µM (inactive) in experiment [7]. Moreover, the GI50 in [8], in experiment [10], in [11], in [12], in [13] and in experiment [14] was > 100 µM (inactive) in each case. Moreover, the GI50 in experiment [15] is > 100 µM (inactive); in [16] it was 98.2 µM (inactive); in experiment [17], 35.9 µM (inactive); in experiment [18], > 100 µM (inactive); in [19] it was > 100 µM (inactive); in experiment [20], > 100 µM (inactive).

In the case of `O=P1(NCCCl)OCCC(OO)N1CCCl` (configuration not stated), the GI50 in [1] is > 71.9 µM (inactive); in experiment [2] it was 47.3 µM (inactive); in experiment [3] it was 18 µM; in experiment [4], 50.4 µM (inactive); in experiment [5], 19.4 µM (inactive); in experiment [6], > 100 µM (inactive). The GI50 in [7] was 1.82 µM (inactive); in [8], 21.9 µM (inactive); in experiment [9], 56.1 µM (inactive); in [10], > 100 µM (inactive); in experiment [11] it was 20.5 µM (inactive); in experiment [12], 42.9 µM (inactive). Besides, the GI50 in experiment [13] is 37.7 µM (inactive); in [14], 37.4 µM (inactive); in experiment [15], > 52 µM (inactive); in experiment [16], 32.7 µM (inactive); in experiment [17] it was > 100 µM (inactive); in experiment [18], 15.7 µM (inactive). In addition, the GI50 in [19] was 32.4 µM (inactive); in experiment [20] it was 32.1 µM (inactive).

On to `CCOc1ccccc1NC(=O)C(C#N)C1=C(Cl)C(=O)c2ccccc2C1=O` (configuration not stated), for which the GI50 in [1] was 1.95 µM (inactive); in experiment [2] it was 1.88 µM (inactive); in experiment [3] it was 1.47 µM; in experiment [5], 1.58 µM (inactive); in experiment [6], 1.72 µM (inactive); in experiment [7], 0.74 µM (active). For the same compound, the GI50 was 1.68 µM (inactive) in experiment [8]; 2.13 µM (inactive) in experiment [10]; 1.94 µM (inactive) in experiment [11]; 2.14 µM (inactive) in experiment [12]; 1.55 µM (inactive) in [13]; 1.79 µM (inactive) in experiment [14]. For the same compound, the GI50 in experiment [15] is 2.13 µM (inactive); in experiment [16] it was 2.33 µM (inactive); in experiment [17] it was 1.33 µM (inactive); in [18], 1.78 µM (inactive); in [19], 1.71 µM (inactive); in experiment [20], 1.06 µM (active).

In the case of `O=C1/C(=C/c2ccc(Cl)cc2)CCC1CN1CCOCC1` (configuration not stated), the GI50 is 27.4 µM (inactive) in [1]; 3.06 µM (inactive) in [2]; 3.83 µM in [3]; 4.31 µM (inactive) in experiment [4]; 1.86 µM (inactive) in experiment [5]; 3.33 µM (inactive) in experiment [6]. Also, the GI50 in experiment [7] was 2.28 µM (inactive); in experiment [8], 5.48 µM (inactive); in experiment [9] it was 4.6 µM (inactive); in experiment [10], 20.6 µM (inactive); in experiment [11] it was 17.5 µM (inactive); in experiment [12], 23.2 µM (inactive). In addition, the GI50 is 16.5 µM (inactive) in experiment [13]; 3.78 µM (inactive) in [14]; 14.8 µM (inactive) in experiment [15]; 20.5 µM (inactive) in experiment [16]; 0.687 µM (active) in experiment [17]; 2.47 µM (inactive) in [18]. The GI50 is 15.9 µM (inactive) in experiment [19] and 8.73 µM (inactive) in experiment [20].

Take `CNC=O`: the GI50 in [1] is > 10000 µM (inactive); in experiment [2], > 10000 µM (inactive); in experiment [3], more than 10000 µM; in [4], > 10000 µM (inactive); in experiment [5], > 10000 µM (inactive); in [6], > 10000 µM (inactive). Moreover, the GI50 in experiment [7] was > 9180 µM (inactive); in [8], > 10000 µM (inactive); in [9], > 10000 µM (inactive); in experiment [10], > 10000 µM (inactive); in experiment [11], > 10000 µM (inactive); in [12], > 10000 µM (inactive). Moreover, the GI50 in experiment [13] is > 10000 µM (inactive); in experiment [14], > 7740 µM (inactive); in [15], > 10000 µM (inactive); in [16], 8150 µM (inactive); in experiment [17] it was > 10000 µM (inactive); in experiment [18] it was > 10000 µM (inactive). In addition, the GI50 in experiment [19] is 9930 µM (inactive); in [20] it was > 10000 µM (inactive).

Turning to `N[C@H](C(=O)O)[C@@H]1CC(Cl)=NO1` [ACIVICIN], the GI50 in experiment [1] was 0.916 µM (active); in experiment [2], 2.33 µM (inactive); in experiment [3] it was 0.738 µM; in experiment [4], 3.62 µM (inactive); in [5] it was 2.46 µM (inactive); in experiment [7], 1.46 µM (inactive). For the same compound, the GI50 in experiment [8] is 2.9 µM (inactive); in experiment [9], 3.9 µM (inactive); in [11], 14.6 µM (inactive); in experiment [12], 7.71 µM (inactive); in experiment [13], 4.61 µM (inactive); in experiment [14], 3.5 µM (inactive). In addition, the GI50 in experiment [16] was 25.9 µM (inactive); in [17] it was 0.74 µM (active); in [18], 1.07 µM (active); in [19], 2.21 µM (inactive); in experiment [20], 4.8 µM (inactive).

For `O=C1C=CC(=C(c2ccc(O)cc2)c2ccc(O)cc2)C=C1` [AURIN], the GI50 in experiment [1] was 22 µM (inactive); in experiment [2], 6.78 µM (inactive); in [3], 14.4 µM; in [5], 2.94 µM (inactive); in [6], 12.8 µM (inactive); in [7], 10 µM (inactive). Besides, the GI50 in experiment [8] is 13.3 µM (inactive); in [10], 17.4 µM (inactive); in [11] it was 14.4 µM (inactive); in experiment [12], 18.2 µM (inactive); in experiment [13], 3.88 µM (inactive); in experiment [14], 8.47 µM (inactive). Also, the GI50 is 15.6 µM (inactive) in experiment [15]; 3.21 µM (inactive) in experiment [16]; 2.36 µM (inactive) in experiment [17]; 12.5 µM (inactive) in experiment [18]; 5.82 µM (inactive) in [19]; 9.68 µM (inactive) in experiment [20].

The values above are taken from ChEMBL document CHEMBL1201862, “PubChem BioAssay data set” (2004).
